From patent US20130149701A1, “METHODS OF IDENTIFYING THERAPEUTIC AGENTS FOR TREATING PERSISTER AND BACTERIAL INFECTION” (priority 2010, published 2013)
In brackets after ≈: the same amount, converted by molar mass. Entries after “also recorded” stand apart in the source; their conditions may differ.

Experiments:
[1] = biological target: T1, wild type M. tuberculosis RpsA binding to tmRNA (Mycobacterium tuberculosis, UniProt P9WH43); settings: for effect on tmRNA binding to wild type RpsA: FIG. 5A, POA Lanes 2-7, PZA (200 g/ml), INH (1 g/ml)
T1 sequence (P9WH43 1-481): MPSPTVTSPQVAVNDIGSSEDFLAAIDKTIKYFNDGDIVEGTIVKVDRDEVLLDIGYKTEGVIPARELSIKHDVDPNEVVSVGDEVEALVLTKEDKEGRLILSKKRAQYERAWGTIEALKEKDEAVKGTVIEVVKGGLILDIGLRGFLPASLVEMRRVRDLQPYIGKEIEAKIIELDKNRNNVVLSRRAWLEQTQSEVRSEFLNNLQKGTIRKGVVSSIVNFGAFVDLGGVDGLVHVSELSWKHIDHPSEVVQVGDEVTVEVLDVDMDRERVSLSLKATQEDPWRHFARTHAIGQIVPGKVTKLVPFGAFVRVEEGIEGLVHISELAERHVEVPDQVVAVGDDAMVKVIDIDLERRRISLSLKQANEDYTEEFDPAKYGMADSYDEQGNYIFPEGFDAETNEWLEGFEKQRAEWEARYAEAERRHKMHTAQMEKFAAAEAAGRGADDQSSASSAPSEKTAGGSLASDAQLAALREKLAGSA

Endonuclease IV (Rv0670) [2] = biological target: T2, Endonuclease IV (Rv0670) (Mycobacterium tuberculosis, UniProt P9WQ13); type: biochemical, M. tuberculosis
T2 sequence (P9WQ13 whole entry): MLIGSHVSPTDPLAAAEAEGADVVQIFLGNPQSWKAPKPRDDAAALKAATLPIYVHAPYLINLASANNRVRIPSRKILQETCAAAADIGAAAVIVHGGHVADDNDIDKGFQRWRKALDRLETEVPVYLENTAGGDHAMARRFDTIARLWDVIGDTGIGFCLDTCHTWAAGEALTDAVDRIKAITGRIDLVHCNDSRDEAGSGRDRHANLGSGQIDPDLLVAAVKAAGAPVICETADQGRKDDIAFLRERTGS

Endonuclease IV (Rv0670) [3] = biological target: T2, Endonuclease IV (Rv0670); assay: Endonuclease IV (Rv0670) activity on oligonucleotides with AP, U or H lesions; type: biochemical, M. tuberculosis; settings: oligos with AP, U or H lesion; POA 2, 4, 8, 16, 25 and 34 mM; INH and PZA 25 mM
[4] = biological target: M. tuberculosis H37Rv RpsA (WT) (Mycobacterium tuberculosis, UniProt P9WH43); assay: biochemical; type: binding
M. smegmatis RpsA = biological target: T3, M. smegmatis RpsA (Mycolicibacterium smegmatis, UniProt A0QYY6); type: binding; settings: 10 μM RpsA titrated with 100 μM POA
T3 construct: made in house
T3 sequence (A0QYY6 1-479): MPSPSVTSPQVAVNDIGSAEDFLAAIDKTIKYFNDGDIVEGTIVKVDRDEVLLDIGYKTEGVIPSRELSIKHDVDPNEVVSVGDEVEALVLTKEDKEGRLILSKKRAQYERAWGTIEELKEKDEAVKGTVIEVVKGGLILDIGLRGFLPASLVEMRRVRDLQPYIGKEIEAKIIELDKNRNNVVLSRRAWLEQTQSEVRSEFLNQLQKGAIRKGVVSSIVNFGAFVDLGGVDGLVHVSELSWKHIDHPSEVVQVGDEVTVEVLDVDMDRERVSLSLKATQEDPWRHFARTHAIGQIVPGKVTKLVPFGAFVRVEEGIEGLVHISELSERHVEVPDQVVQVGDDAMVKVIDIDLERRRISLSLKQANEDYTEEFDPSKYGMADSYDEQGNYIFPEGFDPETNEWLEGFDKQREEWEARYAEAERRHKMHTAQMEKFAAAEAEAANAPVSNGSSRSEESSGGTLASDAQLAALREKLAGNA

[5] = biological target: M. tuberculosis ribosome, tmRNA and SmpB (trans-translation) (Mycobacterium tuberculosis, UniProt P9WH43); type: biochemical
[6] = biological target: M. tuberculosis ribosome (canonical translation) (Mycobacterium tuberculosis, UniProt P9WH43); type: biochemical
[7] = biological target: ribosome from M. smegmatis (trans-translation) (Mycolicibacterium smegmatis, UniProt A0QYY6); type: biochemical
[8] = biological target: ribosome from E. coli (trans-translation) (Escherichia coli, UniProt P0AG67); type: biochemical
[9] = system: M. tuberculosis cell lysates; type: binding
M. tuberculosis = assay: MIC of POA as stated in the text; type: cell-based; settings: Mycobacterium tuberculosis, read-out: MIC concentration
[10] = system: Mtb clinical isolate DHM444 / H37Rv; assay: microbe, parasite or virus in culture; type: cell-based, M. tuberculosis; settings: Mycobacterium tuberculosis, PZA, sensitive control strain H37Rv

NNC(=O)c1ccncc1 [INH, isoniazid]
effect on tmRNA binding to wild type RpsA [1]: no effect; also recorded: not affected
inhibition of Rv0670 (Endo IV/V) activity (Endonuclease IV (Rv0670) [2]): no inhibition and not
inhibition of Rv0670 endonuclease activity (Endonuclease IV (Rv0670) [3]): did not inhibit

O=C(O)c1cnccn1 [POA, 2-pyrazinecarboxylic acid]
binding to wild type RpsA (ITC) [4]: bound; also recorded: specifically bind
ΔS (ITC) ([4]; pH 7.4): 27.6 cal·mol^−1·K^−1
Kd ([4]; read-out: K (binding constant, ITC)): 133 nM
binding to M. smegmatis RpsA (ITC) (M. smegmatis RpsA): only weakly; also recorded: only very weakly
effect on tmRNA binding to wild type RpsA [1]: Concentration-dependent inhibition
inhibition of wild type Mtb RpsA binding to tmRNA ([1]; POA at its MIC concentration of 50 μg/ml): inhibited
concentration inhibiting trans-translation of DHFR with the rare codon cluster [5]: ≥ 25 µg/mL
inhibition of trans-translation of the DHFR product [5]: inhibited
trans-translation product DHFR [5]: still present
inhibition of trans-translation, densitometry of band intensities ([5]; n=5): Concentration-dependent inhibition
effect on conventional protein synthesis (canonical translation) [6]: no effect; also recorded: did not inhibit
effect on translation of the normal DHFR gene [6]: did not affect
inhibition of trans-translation [7]: nor did it inhibit; also recorded: did not inhibit
inhibition of trans-translation [8]: nor did it inhibit; also recorded: did not inhibit
inhibition of Rv0670 (Endo IV/V) activity (Endonuclease IV (Rv0670) [2]): inhibited the activity of Rv0670 (Endo IV/V) completely
reversibility of Endo IV/V inhibition (Endonuclease IV (Rv0670) [2]; dilution or dialysis): irreversibly
inhibition of Rv0670 endonuclease activity (Endonuclease IV (Rv0670) [3]): inhibited Rv0670 activity specifically in a dose dependent manner; also recorded: specific inhibition
proteins bound to POA identified by Mass Spectrometry ([9]; Examples 8-16, columns with 5-hydroxyl- and 6-hydroxyl-2-pyrazinecarboxylic acid): 9 proteins
proteins that bound to POA ([9]; M. tuberculosis cell lysates, column with 5-hydroxyl-2-pyrazinecarboxylic acid, FIG. 1): several proteins
major POA binding protein ([9]; POA-linked column, mass spectrometry): RpsA
MIC (M. tuberculosis): 50 µg/mL

NC(=O)c1cnccn1 [PZA, Pyrazinamide]
MIC [10]: 100 µg/mL (≈ 812 µM)
binding to wild type RpsA (ITC) [4]: did not bind
effect on tmRNA binding to wild type RpsA [1]: no effect; also recorded: not affected
inhibition of Rv0670 (Endo IV/V) activity (Endonuclease IV (Rv0670) [2]): no inhibition and not
inhibition of Rv0670 endonuclease activity (Endonuclease IV (Rv0670) [3]): did not inhibit

O=C(O)c1cccnc1 [nicotinic acid]
inhibition of trans-translation [5]: did not inhibit
